According to patent US11958861B2, “Spirocyclic lactams as JAK2 V617F inhibitors” (Incyte Corporation, priority 2021, dated 2024):
Where a name gives a salt, the structure may show the parent alone.

Experiments:
[1] = target: T1, catalytic domain (JH1, amino acids 826-1132) of human JAK2 (Homo sapiens, UniProt O60674); test: JAK2 LanthaScreen JH1 Binding Assay; details: 2 hours at 25° C.
T1 construct: catalytic domain (JH1, amino acids 826-1132) of human JAK2; purchased Carna Biosciences 08-445-20N; host or cells: baculovirus expression system
T1 sequence (O60674 826-1132): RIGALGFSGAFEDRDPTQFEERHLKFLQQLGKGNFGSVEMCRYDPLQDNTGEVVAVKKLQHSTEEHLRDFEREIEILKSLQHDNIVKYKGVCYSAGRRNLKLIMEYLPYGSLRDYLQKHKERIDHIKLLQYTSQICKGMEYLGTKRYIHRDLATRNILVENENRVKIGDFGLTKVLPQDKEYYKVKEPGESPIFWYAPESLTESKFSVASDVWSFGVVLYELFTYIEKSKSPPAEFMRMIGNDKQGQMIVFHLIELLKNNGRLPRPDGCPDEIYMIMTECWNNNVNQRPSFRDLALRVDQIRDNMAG
Outline: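 FLAG-tagged biotinylated JAK2 JH1 (1.5 nM) incubated with compounds, 50 nM fluorescent tracer and 0.5 nM streptavidin-Tb in Tris pH 7.5 buffer with MgCl2, BSA, DTT, 2 h at 25 °C.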

[2] = target: T2, catalytic domain (JH1, amino acids 808-1132) of human JAK2 (Homo sapiens, UniProt O60674); test: JAK2 HTRF Enzyme Activity Assay; type: biochemical; details: ATP 30 μM, read-out: ENZ 30UMATP
T2 construct: catalytic domain (JH1, amino acids 808-1132) of human JAK2; His (N); purchased BPS Bioscience 40450; host or cells: baculovirus expression system
T2 sequence (O60674 808-1132): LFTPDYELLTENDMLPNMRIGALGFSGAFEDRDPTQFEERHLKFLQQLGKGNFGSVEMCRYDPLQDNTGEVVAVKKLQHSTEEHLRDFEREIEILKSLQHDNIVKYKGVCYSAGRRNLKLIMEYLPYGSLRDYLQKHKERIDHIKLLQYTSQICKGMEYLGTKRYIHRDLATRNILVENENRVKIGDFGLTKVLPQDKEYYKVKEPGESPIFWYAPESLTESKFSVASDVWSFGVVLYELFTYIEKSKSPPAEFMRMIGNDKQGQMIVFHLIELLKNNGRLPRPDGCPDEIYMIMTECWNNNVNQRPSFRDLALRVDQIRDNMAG
Outline: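 His-tagged JAK2 JH1 from baculovirus, 0.015 nM, incubated with compound, ATP at 30 μM or 1 mM and 500 nM biotinylated peptide, pH 7.5, 60 min at 25° C. HTRF read-out via Eu-anti-phosphotyrosine and streptavidin-APC after EDTA stop; IC50 from four-parameter dose-response fit.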

[3] = target: T3, pseudo-kinase domain (JH2, amino-acids 536-812) of human Wild Type JAK2 (Homo sapiens, UniProt O60674, F794H/W659A/W777A); test: JAK2 LanthaScreen JH2-WT Binding Assay; details: 1 hour at 25° C.
T3 construct: pseudo-kinase domain (JH2, amino-acids 536-812 with 3 surface mutations W659A, W777A, F794H); purchased BPS Bioscience 79463; host or cells: baculovirus expression system
T3 sequence (O60674 536-812 W659A/W777A/F794H): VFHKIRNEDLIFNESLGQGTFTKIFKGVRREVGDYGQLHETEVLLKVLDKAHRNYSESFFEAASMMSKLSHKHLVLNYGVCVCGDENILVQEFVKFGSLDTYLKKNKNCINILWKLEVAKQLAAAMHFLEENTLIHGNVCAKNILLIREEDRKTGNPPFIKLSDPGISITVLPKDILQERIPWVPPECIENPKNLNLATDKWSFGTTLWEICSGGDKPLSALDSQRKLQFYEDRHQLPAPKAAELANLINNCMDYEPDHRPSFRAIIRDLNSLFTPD
Outline: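 TR-FRET tracer displacement: 0.145 nM biotinylated JH2 protein, 50 nM fluorescent tracer, 0.25 nM streptavidin-Tb, compound dilution series; 50 mM Tris pH 7.5, 10 mM MgCl2, 5 mM DTT; 1 h, 25° C. Non-specific binding with 2 mM ATP. IC50 by 4-parameter fit.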

[4] = target: T4, pseudo-kinase domain (JH2, amino-acids 536-812) of human V617F mutant JAK2 (Homo sapiens, UniProt O60674, F794H/V617F/W659A/W777A); test: JAK2 LanthaScreen JH2-V617F Binding Assay; details: 1 hour at 25° C.
T4 construct: pseudo-kinase domain (JH2, amino-acids 536-812 with 3 surface mutations W659A, W777A, F794H); purchased BPS Bioscience 79498; host or cells: baculovirus expression system
T4 sequence (O60674 536-812 V617F/W659A/W777A/F794H): as the sequence (O60674 536-812 W659A/W777A/F794H) above, with V82F counted along it
Outline: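 Competition of compounds with a fluorescent tracer (50 nM) for the biotinylated domain (0.26 nM), detected via streptavidin-Tb (0.25 nM) after 1 h at 25° C in pH 7.5 Tris buffer containing glycerol, BSA and Brij-35. ATP at 2 mM gave background. IC50 by four-parameter fit.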

Compound	IC50 [1]	IC50 [2]	IC50 [3]	IC50 [4]
CN1C(=O)C2(CCN(c3ccncn3)CC2)c2c1cnc1[nH]c(-c3cnn(C)c3)c(C3=CCOCC3)c21 [Example 20, 1-(3,6-Dihydro-2H-pyran-4-yl)-6-methyl-2-(1-methyl-1H-pyrazol-4-yl)-(1-(pyrimidin-4-yl)-3,6-dihydro-7H-spiro[dipyrrolo[2,3-b:3′,2′-d]pyridine-8,4′-piperidin]-7-one, trifluoroacetate salt]	> 2500 nM	> 2500 nM	100 to 500 nM	100 to 500 nM
COc1cccc(NC(=O)N2CCC3(CC2)C(=O)N(C)c2cnc4[nH]c(-c5ccc(CN6CCC(S(C)(=O)=O)CC6)cc5)c(-c5ccccc5)c4c23)c1 [Example 21, N-(3-Methoxyphenyl)-6-methyl-2-(4-((4-(methylsulfonyl)piperidin-1-yl)methyl)phenyl)-7-oxo-1-phenyl-6,7-dihydro-3H-spiro[dipyrrolo[2,3-b:3′,2′-d]pyridine-8,4′-piperidine]-1′-carboxamide, trifluoroacetate salt]	> 2500 nM	> 2500 nM	≤ 100 nM	≤ 100 nM
CN1C(=O)C2(CCCC2)c2c1cnc1[nH]c(-c3cnn(C)c3)c(-c3ccc(CN4CCN(S(C)(=O)=O)CC4)cc3)c21 [Example 22, 6′-Methyl-2′-(1-methyl-1H-pyrazol-4-yl)-1′-(4-((4-(methylsulfonyl)piperazin-1-yl)methyl)phenyl)-3′,6′-dihydro-7′H-spiro[cyclopentane-1,8′-dipyrrolo[2,3-b:3′,2′-d]pyridin]-7′-one, trifluoroacetate salt]	> 2500 nM	> 2500 nM	≤ 100 nM	100 to 500 nM
CCS(=O)(=O)N1CC(CC#N)(N2CCC3(CC2)C(=O)N(C)c2cnc4[nH]c(-c5cnn(C)c5)c(-c5ccccc5)c4c23)C1 [Example 23, 2-(1-(Ethylsulfonyl)-3-(6-methyl-2-(1-methyl-1H-pyrazol-4-yl)-7-oxo-1-phenyl-6,7-dihydro-3H-spiro[dipyrrolo[2,3-b:3′,2′-d]pyridine-8,4′-piperidin]-1′-yl)azetidin-3-yl)acetonitrile, trifluoroacetate salt]	500 to 1250 nM	100 to 500 nM	≤ 100 nM	≤ 100 nM
CC(=O)N1CC(CC#N)(N2CCC3(CC2)C(=O)N(C)c2cnc4[nH]c(-c5cnn(C)c5)c(-c5ccccc5)c4c23)C1 [Example 24, 2-(1-Acetyl-3-(6-methyl-2-(1-methyl-1H-pyrazol-4-yl)-7-oxo-1-phenyl-6,7-dihydro-3H-spiro[dipyrrolo[2,3-b:3′,2′-d]pyridine-8,4′-piperidin]-1′-yl)azetidin-3-yl)acctonitrile, trifluoroacetate salt]	500 to 1250 nM	100 to 500 nM	≤ 100 nM	≤ 100 nM
CCNC(=O)N1CC(CC#N)(N2CCC3(CC2)C(=O)N(C)c2cnc4[nH]c(-c5cnn(C)c5)c(-c5ccccc5)c4c23)C1 [Example 25, 3-(Cyanomethyl)-N-ethyl-3-(6-methyl-2-(1-methyl-1H-pyrazol-4-yl)-7-oxo-1-phenyl-6,7-dihydro-3H-spiro[dipyrrolo[2,3-b:3′,2′-d]pyridine-8,4′-piperidin]-1′-yl)azetidine-1-carboxamide, trifluoroacetate salt]	500 to 1250 nM	100 to 500 nM	≤ 100 nM	≤ 100 nM
CCNC(=O)NC1CC(CC#N)(N2CCC3(CC2)C(=O)N(C)c2cnc4[nH]c(-c5cnn(C)c5)c(-c5ccccc5)c4c23)C1 (stereo not drawn) [Example 28, 1-(3-(Cyanomethyl)-3-(6-methyl-2-(1-methyl-1H-pyrazol-4-yl)-7-oxo-1-phenyl-6,7-dihydro-3H-spiro[dipyrrolo[2,3-b:3′,2′-d]pyridine-8,4′-piperidin]-1′-yl)cyclobutyl)-3-ethylurea, trifluoroacetate salt]	100 to 500 nM	100 to 500 nM	≤ 100 nM	≤ 100 nM
CN1C(=O)C2(CCN(C3(CC#N)CC(NS(=O)(=O)c4ccccc4)C3)CC2)c2c1cnc1[nH]c(-c3cnn(C)c3)c(-c3ccccc3)c21 (stereo not drawn) [Example 29, N-(3-(Cyanomethyl)-3-(6-methyl-2-(1-methyl-1H-pyrazol-4-yl)-7-oxo-1-phenyl-6,7-dihydro-3H-spiro[dipyrrolo[2,3-b:3′,2′-d]pyridine-8,4′-piperidin]-1-yl)cyclobutyl)benzenesulfonamide, trifluoroacctate salt]	500 to 1250 nM	500 to 1250 nM	≤ 100 nM	≤ 100 nM
CN1C(=O)C2(CCN(C3(CC#N)CCC3)CC2)c2c1cnc1[nH]c(-c3cnn(CC(F)F)c3)c(-c3ccc4c(cnn4C)c3)c21 [Example 30, 2-(1-(2-(1-(2,2-Difluoroethyl)-1H-pyrazol-4-yl)-6-methyl-1-(1-methyl-1H-indazol-5-yl)-7-oxo-6,7-dihydro-3H-spiro[dipyrrolo[2,3-b:3′,2′-d]pyridine-8,4′-piperidin]-1′-yl)cyclobutyl)acetonitrile, trifluoroacetate salt]	100 to 500 nM	100 to 500 nM	≤ 100 nM	≤ 100 nM
CN1C(=O)C2(CCN(C3(CC#N)CCC3)CC2)c2c1cnc1[nH]c(-c3cnn(C)c3)c(-c3ccc4c(cnn4C)c3)c21 [Example 31, 2-(1-(6-Methyl-1-(1-methyl-1H-indazol-5-yl)-2-(1-methyl-1H-pyrazol-4-yl)-7-oxo-6,7-dihydro-3H-spiro[dipyrrolo[2,3-b:3′,2′-d]pyridine-8,4′-piperidin]-1′-yl)cyclobutyl)acetonitrile, trifluoroacetate salt]	100 to 500 nM	100 to 500 nM	≤ 100 nM	≤ 100 nM
CN1C(=O)C2(CCN(C3(CC#N)CCC3)CC2)c2c1cnc1[nH]c(-c3cnn(CC(C)(C)O)c3)c(-c3ccc4c(cnn4C)c3)c21 [Example 32, 2-(1-(2-(1-(2-Hydroxy-2-methylpropyl)-1H-pyrazol-4-yl)-6-methyl-1-(1-methyl-1H-indazol-5-yl)-7-oxo-6,7-dihydro-3H-spiro[dipyrrolo[2,3-b:3′,2′-d]pyridine-8,4′-piperidin]-1′-yl)cyclobutyl)acetonitrile, trifluoroacetate salt]	100 to 500 nM	100 to 500 nM	≤ 100 nM	≤ 100 nM
CN1C(=O)C2(CCN(C3(CC#N)CCC3)CC2)c2c1cnc1[nH]c(-c3cnn(CC(F)(F)F)c3)c(-c3ccc4c(cnn4C)c3)c21 [Example 33, 2-(1-(6-Methyl-1-(1-methyl-1H-indazol-5-yl)-7-oxo-2-(1-(2,2,2-trifluoroethyl)-1H-pyrazol-4-yl)-6,7-dihydro-3H-spiro[dipyrrolo[2,3-b:3′,2′-d]pyridine-8,4′-piperidin]-1′-yl)cyclobutyl)acetonitrile, trifluoroacetate salt]	500 to 1250 nM	500 to 1250 nM	≤ 100 nM	≤ 100 nM
CCS(=O)(=O)c1ccc(-c2[nH]c3ncc4c(c3c2-c2ccc3c(cnn3C)c2)C2(CCN(C3(CC#N)CCC3)CC2)C(=O)N4C)cc1 [Example 35, 2-(1-(2-(4-(Ethylsulfonyl)phenyl)-6-methyl-1-(1-methyl-1H-indazol-5-yl)-7-oxo-6,7-dihydro-3H-spiro[dipyrrolo[2,3-b:3′,2′-d]pyridine-8,4′-piperidin]-1′-yl)cyclobutyl)acetonitrile, trifluoroacetate salt]	500 to 1250 nM	500 to 1250 nM	≤ 100 nM	≤ 100 nM
COCCn1cc(-c2[nH]c3ncc4c(c3c2-c2ccc3c(cnn3C)c2)C2(CCN(C3(CC#N)CCC3)CC2)C(=O)N4C)cn1 [Example 36, 2-(1-(2-(1-(2-Methoxyethyl)-1H-pyrazol-4-yl)-6-methyl-1-(1-methyl-1H-indazol-5-yl)-7-oxo-6,7-dihydro-3H-spiro[dipyrrolo[2,3-b:3′,2′-d]pyridine-8,4′-piperidin]-1′-yl)cyclobutyl)acetonitrile, trifluoroacetate salt]	100 to 500 nM	100 to 500 nM	≤ 100 nM	≤ 100 nM
CN1C(=O)C2(CCN(C3(CC#N)CCC3)CC2)c2c1cnc1[nH]c(-c3cnn(C(C)(C)CO)c3)c(-c3ccc4c(cnn4C)c3)c21 [Example 37, 2-(1-(2-(1-(1-Hydroxy-2-methylpropan-2-yl)-1H-pyrazol-4-yl)-6-methyl-1-(1-methyl-1H-indazol-5-yl)-7-oxo-6,7-dihydro-3H-spiro[dipyrrolo[2,3-b:3′,2′-d]pyridine-8,4′-piperidin]-1′-yl)cyclobutyl)acetonitrile, trifluoroacetate salt]	100 to 500 nM	100 to 500 nM	≤ 100 nM	≤ 100 nM
